From US20090169494A1, “Sunscreen cosmetic composition” (Shiseido Company Ltd, priority 2005, published 2009)

Assay: Solubility of the triazine UV absorbent in oil components A-E
Format: physicochemical
Conditions: dissolved at 80° C., three days stirring at 0° C., supernatant absorbance at 342.8 nm; FIG. 1
Protocol: Solubility of 2,4-bis[[4-(2-ethylhexyloxy)-2-hydroxy]phenyl]-6-(4-methoxyphenyl)-1,3,5-triazine in the following oil components A-E was measured.
2,4-bis[[4-(2-ethylhexyloxy)-2-hydroxy]phenyl]-6-(4-methoxyphenyl)-1,3,5-triazine is heated and dissolved at 80° C. in each of the aforementioned oil components A-E. After the temperature naturally cools down to room temperature, a small amount of 2,4-bis[[4-(2-ethylhexyloxy)-2-hydroxy]phenyl]-6-(4-methoxyphenyl)-1,3,5-triazine in powder form is added, followed by three days of stirring and cooling (stirrer) at 0° C. After this, the supernatant solution is quickly sampled before the temperature rises and 30 mg (actual measurement) of it is diluted to 100 mL of ethyl acetate. The absorbance at 342.8 nm of the obtained diluted solution is measured. The obtained absorbance is plotted against a previously prepared calibration curve to determine the solubility.

Structure (SMILES) | Solubility of 2,4-bis[[4-(2-ethylhexyloxy)-2-hydroxy]phenyl]-6-(4-methoxyphenyl)-1,3,5-triazine in the oil component
CC(C)COc1ccc(-n2nc3ccccc3n2)c(O)c1 [Oil component E, 2-(2-hydroxy-4-isobutoxyphenyl)-2H-benzotriazole] | particularly good
CCCCC(CC)COc1ccc(-n2nc3ccccc3n2)c(O)c1 (centres unmarked) [Oil component D, 2-[4-(2-ethylhexyloxy)-2-hydroxyphenyl]-2H-benzotriazole] | particularly good
